Measured values taken from USRE42890E1, “Furazanobenzimidazoles” (Basilea Pharmaceutica AG, priority 2003, dated 2011).
Like-named read-outs stand apart in the source and are kept apart here.

Key:
HeLa = experiment: MTS proliferation assay, HeLa; assay type: cell-based, human; conditions: 72 h incubation, read-out: MTS proliferation assay IC 50 HeLa
Protocol: (§1) Cell lines are cultured in RPMI-1640 tissue culture medium containing either 5% or 10% fetal calf serum, 0.05 mM 2-mercaptoethanol, 2 mM glutamine and penicillin/streptomycin 50 μg/ml (complete medium) (Sigma, Buchs, Switzerland). General growth conditions are 37° C. and 7.5% CO2.
(§2) The following human cell lines (either EGFP transfected or not) are being used: HeLa (ATCC: CCL-2), KB (ATCC: CCL-17), MCF7 (ATCC: HTB-22), SK-BR-3 (ATCC: HTB-30), SK-Mel 1 (ATCC: HTB-67), SK-Mel 28 (ATCC: HTB-72), PC-3 (ATCC: CRL-1435), SW 480 (ATCC: CCL-228), NCl-H460 (ATCC: HTB-177), NCl-H1792 (ATCC: CRL-5895), HT1080 (ATCC: CCL-21), Jurkat (ATCC: TIB-152), Ramos (ATCC: CRL-1596), Raji (ATCC: CCL-86), H9 (ATCC: HTB-176), Hut78 (ATCC: TIB-161), K562 (ATCC: CCL 243), HL-60 (ATCC: CCL 240), U-87MG (ATCC: HTB-14), HepG2 (ATCC: HB-8065), U-2 OS (ATCC: HTB-96), Saos-2 (ATCC: HTB-85), U937 (ATCC: CRL 1593), Hs 578T (ATCC: HTB 126), HBL-100 (ATCC: HTB 124), Molt-4 (ATCC: CRL 1582).
(§3) The assay is performed in 96 well tissue culture plates. The cells (range: 1.5*10^3-10^4) are seeded out in 80 μl complete medium 24 h prior to compound treatment. The test compounds are added in 20 μl complete medium containing max 5% DMSO. The final compound concentrations in the assays are 10 μM, 3 μM, 1 μM and 0.3 μM, respectively. The assay plates are incubated for 72 h at culture conditions. The MTS reagent is prepared according to the manufacturer's protocol (Promega G1111). 20 μl MTS reagent are added to each well, the assay plates are quickly spun and incubated for another 3 h at culture conditions. Subsequently, the plates are shortly shaked and absorption measured with a microplate-reader at 492 nm.

[1] = tested on: adherent cells or suspension cells; experiment: Hoechst 33342 nuclear staining (fraction of apoptotic nuclei); assay type: cell-based; design: key: 0 relating to no activity; 1 relating to weak activity comprising less than 70% of the cells; score 2 relating to strong activity comprising more than 70% of the cells
Protocol: as §1
This assay is performed in 96 well tissue culture plates. Appropriate number of cells (adherent cells: 3-5*10^3, suspension cells: 8-10*10^3) are being seeded out in 80 μl complete medium. Adherent cells are incubated for 24 h for proper spreading out before addition of test compounds while suspension cells are immediately treated with test compounds after seeding out. The test compounds are added in 20 μl complete medium containing max 5% DMSO. […] After 24 h or 48 h incubation at culture conditions, 10 μl medium containing Hoechst 33342 dye (Sigma B-2261) at 2-5 μg/ml are added to each well. The assay plates are then further incubated for 30 minutes and subsequently analyzed with a standard inverted fluorescence microscope.
The readout allows the determination of the fraction of apoptotic nuclei as well as other morphological criteria specific for apoptosis as a function of the treatment. The following scores are used: 0 relating to no activity, 1 relating to weak activity comprising less than 70% of the cells and score 2 relating to strong activity comprising more than 70% of the cells.

Jurkat = experiment: MTS proliferation assay, Jurkat; assay type: cell-based, human; conditions: 72 h incubation, read-out: MTS proliferation assay IC 50 Jurkat
Protocol: as §1, §2, §3

MRC5 = experiment: MTS proliferation assay, MRC5; assay type: cell-based; conditions: MRC5, 72 h incubation, read-out: MTS proliferation assay IC 50 MRC5
Protocol: as §1, §3

HT1080 = experiment: MTS proliferation assay, HT1080; assay type: cell-based, human; conditions: HT1080, 72 h incubation; read-out: MTS proliferation assay IC 50 HT1080
Protocol: as §1, §2, §3

SMILES | IC50 (HeLa) | Hoechst 33342 nuclear staining score ([1]; H460, conc 0.01 μm) | Hoechst 33342 nuclear staining score ([1]; H460, conc 0.1 μm) | Hoechst 33342 nuclear staining score ([1]; H460, conc 1 μm) | Hoechst 33342 nuclear staining score ([1]; HeLa, conc 0.01 μm) | Hoechst 33342 nuclear staining score ([1]; HeLa, conc 0.1 μm) | Hoechst 33342 nuclear staining score ([1]; HeLa, conc 1 μm) | Hoechst 33342 nuclear staining score ([1]; Jily, conc 0.01 μm) | Hoechst 33342 nuclear staining score ([1]; Jily, conc 0.1 μm) | Hoechst 33342 nuclear staining score ([1]; Jurkat, conc 0.01 μm) | Hoechst 33342 nuclear staining score ([1]; Jurkat, conc 0.1 μm) | Hoechst 33342 nuclear staining score ([1]; Jurkat, conc 1 μm) | Hoechst 33342 nuclear staining score ([1]; MRC5, conc 0.01 μm) | Hoechst 33342 nuclear staining score ([1]; MRC5, conc 0.1 μm) | Hoechst 33342 nuclear staining score ([1]; MRC5, conc 1 μm) | Hoechst 33342 nuclear staining score ([1]; PBLs, conc 0.01 μm) | Hoechst 33342 nuclear staining score ([1]; PBLs, conc 0.1 μm) | Hoechst 33342 nuclear staining score ([1]; PBLs, conc 1 μm) | IC50 (Jurkat) | IC50 (MRC5) | other results
COc1cc2nc(-c3nonc3N)n(CC(=O)c3ccc(-c4ccccc4)cc3)c2cc1OC [Example 117] | > 1000 nM | 0 | 0 | 0 | 0 | 0 | 0 | 0 | 0 | 0 | 0 | 0 | 0 | 0 | 0 | 0 | 0 | 0 | > 1000 nM | > 1000 nM | Hoechst 33342 nuclear staining score ([1]; Jily, conc 1 μm): 0; IC50 (HT1080): > 1000 nM
CC(=O)Nc1nonc1-c1nc2ccccc2n1CC(=O)c1ccc(Cl)cc1 [Example 5, N-{4-[1-(4-Chlorophenacyl)-1H-benzimidazol-2-yl]-furazan-3-yl}-acetamide] |  |  |  |  | 0 | 0 | 2 (score 2 relating to strong activity comprising more than 70% of the cells) |  |  | 0 | 0 | 2 (score 2 relating to strong activity comprising more than 70% of the cells) | 0 | 0 | 0 | 0 | 0 | 0 |  |  | IC50 (HeLa; Homo sapiens): 100 to 1000 nM; IC50 (Jurkat; Homo sapiens): 100 to 1000 nM; IC50 (MRC5; Homo sapiens): 100 to 1000 nM
Nc1nonc1-c1nc2ccccc2n1CC(=O)c1ccc(-c2ccccc2)cc1 [Example 26] | > 1000 nM | 0 | 0 | 0 | 0 | 0 | 0 | 0 | 0 | 0 | 0 | 0 | 0 | 0 | 0 | 0 | 0 | 0 | > 1000 nM | > 1000 nM | Hoechst 33342 nuclear staining score ([1]; Jily, conc 1 μm): 0
Cc1cc2nc(-c3nonc3N)n(CC(=O)c3ccc(Br)cc3)c2cc1C [Example 109] | > 1000 nM | 0 | 0 | 0 | 0 | 0 | 0 | 0 | 0 | 0 | 0 | 0 | 0 | 0 | 0 | 0 | 0 | 0 | 100 to 1000 nM | > 1000 nM | Hoechst 33342 nuclear staining score ([1]; Jily, conc 1 μm): 0
CON=C(Cn1c(-c2nonc2N)nc2ccccc21)c1ccc(Cl)cc1 (mixture of isomers) [Example 22] | 100 to 1000 nM | 0 | 0 | 0 | 0 | 0 | 2 (score 2 relating to strong activity comprising more than 70% of the cells) |  |  | 0 | 0 | 2 (score 2 relating to strong activity comprising more than 70% of the cells) | 0 | 0 | 0 | 0 | 0 | 0 | 100 to 1000 nM | 100 to 1000 nM | 
CON=C(Cn1c(-c2nonc2N)nc2ccccc21)c1ccccc1Cl (mixture of isomers) [Example 34] | > 1000 nM | 0 | 0 | 0 | 0 | 0 | 0 | 0 | 0 | 0 | 0 | 0 | 0 | 0 | 0 | 0 | 0 | 0 | > 1000 nM | > 1000 nM | Hoechst 33342 nuclear staining score ([1]; Jily, conc 1 μm): 0
Nc1nonc1-c1nc2ccccc2n1CC(=NO)c1ccc(Br)cc1 [Example 2, 4-[1-(4-Bromophenacyl)-1H-benzimidazol-2-yl]-furazan-3-ylamine oxime] |  | 0 | 0 | 0 | 0 | 0 | 0 |  |  | 0 | 0 | 0 | 0 | 0 | 0 | 0 | 0 | 0 |  |  | IC50 (HeLa; Homo sapiens): > 1000 nM; IC50 (Jurkat; Homo sapiens): > 1000 nM; IC50 (MRC5; Homo sapiens): > 1000 nM
CCN(CC)c1ccc(C(=O)Cn2c(-c3nonc3N)nc3ccccc32)cc1 [Example 39] | > 1000 nM | 0 | 0 | 0 | 0 | 0 | 0 | 0 | 0 | 0 | 0 | 0 | 0 | 0 | 0 | 0 | 0 | 0 | > 1000 nM | > 1000 nM | Hoechst 33342 nuclear staining score ([1]; Jily, conc 1 μm): 0
